# Marks after values point to notes of the source that are not given here.
# What was measured:
# NHP organs = test: In vivo activity screening in non-human primates: mean normalized UMI counts of barcoded mRNA in tissues after IV infusion of pooled F2 LNPs (Table 7, FIG. 8-11); parameters: species or system cynomolgus monkeys (Macaca fascicularis)
# Description: Non-human primate (NIIP) biodistribution studies were performed in cynomolgus monkeys (e.g., Macaca fascicularis), aged 4-6 years. Animals were premedicated with dexamethasone, famotidine and diphenhydramine (at 1, 0.5 and 5 mg/kg, respectively) −2 and −1 day prior to test material dosing. LNP formulations (prepared in Formulation F2 from Example 1) were prepared with ionizable lipids so that each LNP formulation encapsulates one or more mRNAs with predetermined unique barcode sequences as their cargo. LNPs in PBS, identified by their unique barcoded mRNA cargo, are then pooled together at predetermined ratios. To evaluate LNP biodistribution into tissues upon systemic administration, NHPs received the dose administration by single intravenous infusion via peripheral vein (cephalic, saphenous, or another available) for 30 minutes with LNP dosing material (individual or pooled) in PBS at different total dose (0.5-1 mg/kg) levels.
# At predetermined time points (4-6 hours after pooled test material administration), animals were sacrificed by exsanguination via the femoral artery after the intravenous injection of ketamine (10 mg/kg) and Euthasol® (0.25 mL/kg). Then, all animals underwent whole-body perfusion with PBS prior to tissue collection. 20-25 mg samples for biodistribution analysis were collected from all treatment group animals and then placed in sample tubes containing RNALater™ solution. All tissue samples were stored at room temperature for 24 hours, then the supernatants were removed, and samples were frozen.
# To determine the unique LNPs distributed in the tissues, samples were homogenized by a tissue homogenizer (e.g., TissueLyser). Total RNA from the tissue homogenates were extracted by standard methods. Then, normalized amounts of RNA were sequenced using a targeted RNA sequencing approach with unique molecular identifiers (UMI) to ensure accurate RNA molecule counting. For each tissue, the resulting RNA molecule counts were normalized by pooled test article RNA counts. The results were analyzed using the internal bioinformatics pipeline.
# LNPs comprising MC3 used as a control and for cross-mouse comparison. Dose is in mg/kg; LC is Lipid Compound according to Table 1.
# Screening results for NHP Group 1 (spleen, femur, and muscle) are shown in FIG. 8A, FIG. 8B, and FIG. 8C.
# mouse organs = test: In vivo activity screening in mice: organ mean total flux (p/s) of luciferase activity after injection of F2 LNP pools (Table 6, FIG. 7A-7C); settings: Mouse 9, dose 0.5 mg/kg, luciferase mRNA
# Summary of the method: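 C57BL/6J mice given one tail-vein injection of pooled Formulation F2 LNPs carrying firefly luciferase mRNA (0.25-3 mg/kg) in PBS. At 4-6 h, s.c. D-luciferin given; organs imaged ex vivo by IVIS within 10-15 min, after saline cardiac perfusion. Mean total flux (p/s) per organ ROI.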
structure (smiles),measurement,setting,value
"CCCCC/C=C\CCOC(=O)CCCCC(=O)OCC(COC(=O)CCCCC(=O)OCC/C=C\CCCCC)(COC(=O)CCC(CCCCCC)OC(=O)C12CCN(CC1)CC2)COC(=O)CC12CC3CC(CC(C3)C1)C2 (stereo not shown) [Compound 62, O6-[2-[[2-(1-adamantyl)acetyl]oxymethyl]-2-[[6-[(Z)-non-3-enoxy]-6-oxo-hexanoyl]oxymethyl]-3-[4-(quinuclidine-4-carbonyloxy)decanoyloxy]propyl]O1-[(Z)-non-3-enyl]hexanedioate]",Mean normalized UMI counts (×10^4) Bone Marrow,"NHP organs; NHP 2, bone marrow, pooled F2 LNPs, IV infusion, 4-6 hours",19.0 ×10^4
same,Mean normalized UMI counts (×10^4) Brain,"NHP organs; NHP 2, brain, pooled F2 LNPs, IV infusion, 4-6 hours",3.8 ×10^4
same,Mean normalized UMI counts (×10^4) Heart,"NHP organs; NHP 2, heart, pooled F2 LNPs, IV infusion, 4-6 hours",87.0 ×10^4
same,Mean normalized UMI counts (×10^4) Kidney,"NHP organs; NHP 2, kidney, pooled F2 LNPs, IV infusion, 4-6 hours",21.9 ×10^4
same,Mean normalized UMI counts (×10^4) Liver,"NHP organs; NHP 2, liver, pooled F2 LNPs, IV infusion, 4-6 hours",27.4 ×10^4
same,Mean normalized UMI counts (×10^4) Lung,"NHP organs; NHP 2, lung, pooled F2 LNPs, IV infusion, 4-6 hours",21.8 ×10^4
same,Mean normalized UMI counts (×10^4) Muscle,"NHP organs; NHP 2, muscle, pooled F2 LNPs, IV infusion, 4-6 hours",43.9 ×10^4
same,Mean normalized UMI counts (×10^4) Pancreas,"NHP organs; NHP 2, pancreas, pooled F2 LNPs, IV infusion, 4-6 hours",8.1 ×10^4
same,Mean normalized UMI counts (×10^4) Spleen,"NHP organs; NHP 2, spleen, pooled F2 LNPs, IV infusion, 4-6 hours",29.8 ×10^4
same,Organ Mean Total Flux Femur,mouse organs,0.6 p/s (×10^6)
same,Organ Mean Total Flux Heart,mouse organs,0.1 p/s (×10^6)
same,Organ Mean Total Flux Kidney,mouse organs,0.3 p/s (×10^6)
same,Organ Mean Total Flux Liver,mouse organs,38.0 p/s (×10^6)
same,Organ Mean Total Flux Lung,mouse organs,2.5 p/s (×10^6)
same,Organ Mean Total Flux Muscle,mouse organs,1.4 p/s (×10^6)
same,Organ Mean Total Flux Pancreas,mouse organs,0.5 p/s (×10^6)
same,Organ Mean Total Flux Spleen,mouse organs,3.3 p/s (×10^6)
"CCCCC/C=C\CCOC(=O)CCCCC(=O)OCC(COC(=O)CCCCC(=O)OCC/C=C\CCCCC)(COC(=O)CCC(CCCCCC)OC(=O)NCCN1CCCC1)COC(=O)C12CC3CC(CC(C3)C1)C2 (stereo not shown) [Compound 63, O6-[2-(adamantane-1-carbonyloxymethyl)-2-[[6-[(Z)-non-3-enoxy]-6-oxo-hexanoyl]oxymethyl]-3-[4-(2-pyrrolidin-1-ylethylcarbamoyloxy)decanoyloxy]propyl]O1-[(Z)-non-3-enyl]hexanedioate]",Mean normalized UMI counts (×10^4) Bone Marrow,"NHP organs; cynomolgus monkey, in vivo, iv",233.0 ×10^4
same,Mean normalized UMI counts (×10^4) Brain,"NHP organs; cynomolgus monkey, in vivo, iv",72.8 ×10^4
same,Mean normalized UMI counts (×10^4) Heart,"NHP organs; cynomolgus monkey, in vivo, iv",115.8 ×10^4
same,Mean normalized UMI counts (×10^4) Kidney,"NHP organs; cynomolgus monkey, in vivo, iv",153.6 ×10^4
same,Mean normalized UMI counts (×10^4) Liver,"NHP organs; cynomolgus monkey, in vivo, iv",108.2 ×10^4
same,Mean normalized UMI counts (×10^4) Lung,"NHP organs; cynomolgus monkey, in vivo, iv",139.5 ×10^4
same,Mean normalized UMI counts (×10^4) Muscle,"NHP organs; cynomolgus monkey, in vivo, iv",142.7 ×10^4
same,Mean normalized UMI counts (×10^4) Pancreas,"NHP organs; cynomolgus monkey, in vivo, iv",89.4 ×10^4
same,Mean normalized UMI counts (×10^4) Spleen,"NHP organs; cynomolgus monkey, in vivo, iv",207.6 ×10^4
same,Organ Mean Total Flux Femur,mouse organs,10.4 p/s (×10^6)
same,Organ Mean Total Flux Heart,mouse organs,1.9 p/s (×10^6)
same,Organ Mean Total Flux Kidney,mouse organs,2.4 p/s (×10^6)
same,Organ Mean Total Flux Liver,mouse organs,351.7 p/s (×10^6)
same,Organ Mean Total Flux Lung,mouse organs,37.3 p/s (×10^6)
same,Organ Mean Total Flux Muscle,mouse organs,37.4 p/s (×10^6)
same,Organ Mean Total Flux Pancreas,mouse organs,15.8 p/s (×10^6)
same,Organ Mean Total Flux Spleen,mouse organs,40.7 p/s (×10^6)

# Source: patent US20260234115A1, “LIPID COMPOUNDS, COMPOSITIONS, AND USES THEREOF” (Liberate Bio, Inc., priority 2023, published 2026)
